According to article PMC3388911, “Structure of Leishmania major cysteine synthase” (Acta Crystallographica Section F: Structural Biology and …, 2012):
Where two headings read alike, the source gives them in different places. Where a SMILES comes first, the peptide text is derived from it. Where no end group is shown, it is not given here. The star is where a group is joined. Cbz = O=C(OCc1ccccc1)*

How the values were obtained:
[1] = target: T1, LmCS (L. major cysteine synthase) (Leishmania major, UniProt Q4Q159); experiment: biochemical
T1 sequence (Q4Q159 1-333): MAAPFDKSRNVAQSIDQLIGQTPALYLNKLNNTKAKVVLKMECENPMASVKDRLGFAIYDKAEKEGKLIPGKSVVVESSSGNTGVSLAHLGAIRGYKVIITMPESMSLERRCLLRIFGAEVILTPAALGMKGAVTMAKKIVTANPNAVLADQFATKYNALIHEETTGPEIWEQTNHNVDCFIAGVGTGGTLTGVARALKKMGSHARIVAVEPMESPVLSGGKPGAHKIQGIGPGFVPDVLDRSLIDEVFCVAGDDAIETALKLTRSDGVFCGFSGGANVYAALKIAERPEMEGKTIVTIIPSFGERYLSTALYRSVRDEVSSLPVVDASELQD

[2] = target: T2, AtOAS-TL (A. thaliana O-acetylserine thiol-lyase) (Arabidopsis thaliana, UniProt P47998); experiment: biochemical
T2 sequence (P47998 whole entry): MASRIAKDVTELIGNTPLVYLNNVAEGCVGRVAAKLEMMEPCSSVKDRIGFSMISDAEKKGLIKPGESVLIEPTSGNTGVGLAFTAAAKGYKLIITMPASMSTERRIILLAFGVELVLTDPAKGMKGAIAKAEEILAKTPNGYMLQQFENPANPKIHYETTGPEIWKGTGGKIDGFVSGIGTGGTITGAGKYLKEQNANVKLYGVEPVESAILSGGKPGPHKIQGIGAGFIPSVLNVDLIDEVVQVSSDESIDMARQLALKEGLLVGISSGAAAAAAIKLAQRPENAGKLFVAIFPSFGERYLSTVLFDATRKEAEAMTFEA

[3] = tested on: Mycobacterium tuberculosis CS (OASS); conditions: ref Schnell et al., 2007; cited from earlier work
[4] = target: T2, AtOAS-TL (A. thaliana O-acetylserine thiol-lyase); conditions: read-out: AtOAS-TL IC50; 3 mM OAS, 2 mM sodium sulfide, pH 7.8, room temperature; values with ± are mean ± SD of three determinations, others single IC50 curve
[5] = target: T3, Leishmania major cysteine synthase, C-terminally His-tagged (biochemical analysis) (Leishmania major) (UniProt Q4Q159)
T3 sequence: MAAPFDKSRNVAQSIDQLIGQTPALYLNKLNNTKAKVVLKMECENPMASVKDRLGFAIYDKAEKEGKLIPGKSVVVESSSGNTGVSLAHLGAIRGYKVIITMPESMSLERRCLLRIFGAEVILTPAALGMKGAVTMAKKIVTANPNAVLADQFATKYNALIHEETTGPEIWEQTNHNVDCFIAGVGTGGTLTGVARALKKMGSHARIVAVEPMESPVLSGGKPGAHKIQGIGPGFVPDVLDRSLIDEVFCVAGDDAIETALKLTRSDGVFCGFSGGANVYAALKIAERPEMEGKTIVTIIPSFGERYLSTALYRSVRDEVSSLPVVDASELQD

[6] = target: Arabidopsis thaliana O-acetylserine thiol-lyase (Arabidopsis thaliana, UniProt P47998 1-322); experiment: cell-based or functional assay
Chain of Arabidopsis thaliana O-acetylserine thiol-lyase (P47998 whole entry): as the sequence (P47998 whole entry) above

[7] = target: Arabidopsis thaliana O-acetylserine thiol-lyase (Arabidopsis thaliana) (UniProt P47998)
Chain of Arabidopsis thaliana O-acetylserine thiol-lyase (Arabidopsis thaliana) (P47998 whole entry): as the sequence (P47998 whole entry) above

[8] = target: the molecule itself; experiment: crystal structure; hanging drop at 293 K, 7.5% PGA-LM, 19% PEG 3350, 0.1 M Tris-HCl pH 7.8; P212121, dimer in the asymmetric unit; 1.8 Å; molecular replacement
[9] = LmCS IC50, 3 mM OAS, 2 mM sodium sulfide, pH 7.8, room temperature, values with ± are mean ± SD of three determinations, others single IC50 curve
[10] = 3 mM OAS, 2 mM sodium sulfide, pH 7.8, room temperature, values with ± are mean ± SD of three determinations, others single IC50 curve, read-out: LmCS IC50

DGSGI [DGSGI]
IC50 [1, 9]: 620 ± 50 µM | IC50 [2]: 170 µM

(γ-Glu)4
inhibition of LmCS ([1]; tested up to a concentration of 500 µM): unable to detect any significant inhibition | inhibition of LmCS ([1]; tested up to a concentration of 500 µM, listed as D-glutamate tetrapeptide): insignificant inhibitory activity

EGDGSGI [EGDGSGI]
IC50 [1, 9]: 270 ± 70 µM | IC50 [2]: 240 µM

CC[C@H](C)[C@H](N)C(=O)O [L-Isoleucine]
IC50 [1, 10]: > 4000 µM | inhibition of LmCS ([1]; at 4 mM): no activity

CC[C@H](C)[C@H](NC(=O)Cc1c[nH]c2ccccc12)C(=O)O [N-3-Indolylacetyl-L-isoleucine]
IC50 [1, 10]: 260 µM

CC[C@H](C)[C@H](NC(=O)[C@@H](NC(=O)[C@H](Cc1ccc(O)cc1)NC(=O)[C@@H](N)CC(=O)O)C(C)C)C(=O)O [DYVI] (H-DYVI-OH)
Ki [1]: 4 µM | IC50 [1, 9]: 7 ± 1 µM

CC[C@H](C)[C@H](NC(=O)OCc1ccccc1)C(=O)O [N-CBZ-L-isoleucine]
IC50 [1]: 320 µM

DFSI
type of inhibition of M. tuberculosis OASS [3]: competitive inhibitor

CC[C@H](C)[C@H](NC(=O)[C@@H](NC(=O)OCc1ccccc1)C(C)C)C(=O)O [N-CBZ-L-valine-isoleucine] (Cbz-Val-Ile-OH)
IC50 [1]: 1410 µM

CC[C@H](C)[C@H](NC(=O)CNC(=O)[C@H](CO)NC(=O)CN)C(=O)O [GSGI] (H-GSGI-OH)
IC50 ([1]; LmCS IC50, 3 mM OAS, 2 mM sodium sulfide): ~1500 µM | IC50 [1, 9]: 1500 µM | IC50 [4]: ≤ 2000 µM

DYVI (not fully specified) [DYVI, peptide based on the C-terminus of A. thaliana serine acetyltransferase]
IC50 of inhibition of cysteine synthase activity (cysteine production; 3 mM OAS, 2 mM sodium sulfide) [5]: 7 µM | IC50 of inhibition of cysteine synthase activity (cysteine production; 3 mM OAS, 2 mM sodium sulfide) [6]: 8 µM

GSGI [GSGI, Leishmania SAT C-terminal peptide]
IC50 of inhibition of cysteine synthase activity (cysteine production; 3 mM OAS, 2 mM sodium sulfide); single IC50 curve [7]: < 2000 µM | IC50 of inhibition of cysteine synthase activity (cysteine production; 3 mM OAS, 2 mM sodium sulfide); single IC50 curve [5]: 1500 µM

DGSGI [DGSGI, Leishmania SAT C-terminal peptide]
IC50 of inhibition of cysteine synthase activity (cysteine production; 3 mM OAS, 2 mM sodium sulfide); single IC50 curve [7]: 170 µM | IC50 of inhibition of cysteine synthase activity (cysteine production; 3 mM OAS, 2 mM sodium sulfide) [5]: 620 µM

EGDGSGI [EGDGSGI, Leishmania SAT C-terminal heptapeptide]
IC50 of inhibition of cysteine synthase activity (cysteine production; 3 mM OAS, 2 mM sodium sulfide); single IC50 curve [7]: 240 µM | IC50 of inhibition of cysteine synthase activity (cysteine production; 3 mM OAS, 2 mM sodium sulfide) [5]: 270 µM

B1: Leishmania major cysteine synthase (crystallised form, His tag cleaved) (enzyme)
chain: MAAPFDKSRNVAQSIDQLIGQTPALYLNKLNNTKAKVVLKMECENPMASVKDRLGFAIYDKAEKEGKLIPGKSVVVESSSGNTGVSLAHLGAIRGYKVIITMPESMSLERRCLLRIFGAEVILTPAALGMKGAVTMAKKIVTANPNAVLADQFATKYNALIHEETTGPEIWEQTNHNVDCFIAGVGTGGTLTGVARALKKMGSHARIVAVEPMESPVLSGGKPGAHKIQGIGPGFVPDVLDRSLIDEVFCVAGDDAIETALKLTRSDGVFCGFSGGANVYAALKIAERPEMEGKTIVTIIPSFGERYLSTALYRSVRDEVSSLPVVDASELQD
notes: Leishmania major cysteine synthase (EC 2.5.1.47); LmCS gene subcloned from pET21a+ into pET15bTEV; theoretical mass of one subunit 35.6 kDa; residues 3-213 and 241-333 (subunit A) and 4-214 and 241-333 (subunit B) are seen in the model; The pyridoxal phosphate cofactor was lost in the crystal; A fragment of gamma-poly-D-glutamic acid lies in the active site; also called LmCS; L. major CS; source: …
stoichiometry N [8]: 2
